According to patent US8404665B2, “In vivo use of glutathione S-transferase activated nitric oxide donors” (University of Utah Research Foundation, priority 2002, dated 2013):

How the values were obtained:
[1] = test system: 58 human cancer cell lines; assay type: cell-based
Protocol: Anticancer screen of JS-K against the NCI 58 human cancer cell lines. Cells initially maintained in multiple T150 tissue-culture flasks were detached from the flasks by addition of 2-3 ml of 0.05% trypsin-EDTA when cells reached 70-90% confluency. Thereafter, trypsin was inactivated by addition of 10 ml of RPMI 1640 medium containing 5% fetal bovine serum. All cells were then transferred and seeded onto 96-well microtiter plates at densities between 5,000 and 30,000 cells per well. Three cell lines were inoculated per plate. The cells were grown in RPMI 1640 supplemented with 5% fetal bovine serum and 2 mM L-glutamine for 24 h at 37° C. to allow stabilization prior to addition of JS-K. A total of 58 human cancer cell lines were used for the broad screening. The stock solution of JS-K in DMSO was serially diluted with the RPMI 1640 medium and added immediately to the microtiter plates to produce five concentrations of JS-K, i.e., 10^−4, 10^−5, 10^−6, 10^−7 and 10^−8 M. JS-K was incubated with cells for 48 h.
At the end of incubation, the cells were fixed in situ by 10% trichloroacetic acid, and washed five times with water and dried. Sulforhodamine B (0.4% in 1% acetic acid), a protein stain binding to basic amino acids of cellular macromolecules, was added to each well, and incubated for 10 min at room temperature. Unbound Sulforhodamine B is removed by washing five times with acetic acid. Then the plates were air-dried. Bound stain is solubilized with Tris buffer, and the optical densities were read at 515 nm. The optical densities generated from Sulforhodamine B staining are a function of cell mass and growth rate (Monks et al., 1991). Thus cells with small mass (e.g., leukemias) or relatively slow division rate (e.g., renal RXF393 and lung cancer HOP-92) were inoculated at the relatively high densities of 20,000-30,000 cells per well, while more rapidly dividing cells (e.g., colon HT29 and HCT-116 cell lines, and lung NCI-H460 cells) were inoculated at 5,000 cells per well. For the suspended leukemia cell subpanel, the cells were fixed to the bottom of the microtiter well by adding cold trichloroacetic acid (final concentration 16%) at the end of the drug-incubation period.
The dose-response curve is created by plotting the % growth against the log10 of the corresponding JS-K concentrations for each cell line by disease subpanel group. Three horizontal lines are provided at the % growth values of 50, 0 and −50, respectively. Thus the molar JS-K concentrations corresponding to points where the curves cross these lines represent the interpolated values that cause 50% growth inhibition (GI50, the JS-K concentration causing a 50% reduction in the net protein increase in control cells), total growth inhibition (TGI, the JS-K concentration causing amount of protein at the end of incubation to be equal to the amount at the beginning) and 50% cell killing (LC50, the JS-K concentration causing a 50% reduction in the protein of treated cells at the end of the drug incubation, compared with that at the beginning, indicating a net loss of cells following drug treatment), respectively.

[2] = test system: HL-60 cells; assay: HL-60 cell differentiation (Wright and non-specific esterase staining); assay type: cell-based, human; conditions: 0.5 uM, 3-5 days
Protocol: Cell Growth, Differentiation and Apoptosis Assays. The number of viable cells was determined using the MTT assay according to the manufacturer's protocol (Promega, Madison, Wis.) or using a Coulter counter. Briefly, a MTT assay is an analytical technique that uses the dye dimethylthiazolyl-diphenyltetrazolium (MTT) which turns from yellow to brownish-purple as it is reduced in the mitochondria of living cells. The assay is useful in calorimetric quantitation of cell viability and proliferation. In contrast, cell differentiation was evaluated using Wright and Non-Specific Esterase (NSE) staining of cells collected on microscope slides by cytospin as previously described (Magrinat, G. et al. (1992) Blood 80: 1880-1884). Apoptosis was assayed by flow cytometry and by determining DNA fragmentation using agarose gel electrophoresis as previously described (Shami, P. J. et al. (1998) Leukemia 12: 1461-1466). For the flow cytometry assay, we used the propidium iodide staining method of Nicoletti et al. (Nicoletti, I. et al. (1991) J. Immunol. Methods 139: 271-279).
HL-60 cells were treated with JS-K at a concentration of 0.5 uM for 3-5 days. […] JS-K appears to induce cell differentiation.

[3] = test system: PPC-1 cells; assay: PPC-1 prostate cancer cell growth in vitro; assay type: cell-based
Protocol: Cell Lines and Culture Conditions. HL-60, DLD1, and U937 cells were obtained from ATCC (Rockville, Md.). Meth A cells were from Dr. Wolfram Samlowski (University of Utah, Salt Lake City, Utah). The PPC-1 cell line was provided by Dr. Graeme Bolger (University of Alabama, Birmingham, Ala.). For the cell growth and apoptosis experiments, cells were cultured at a density of 150,000 cells/ml in RPMI-1640 with 10% fetal bovine serum at 37° C. in a 5% CO2 humidified atmosphere. Agents were added at the indicated concentrations 24 h after culture initiation. At the indicated time intervals, cells were harvested and washed twice in phosphate buffered saline (PBS) prior to processing for analysis of growth, differentiation, and apoptosis.
Cell Growth, Differentiation and Apoptosis Assays. The number of viable cells was determined using the MTT assay according to the manufacturer's protocol (Promega, Madison, Wis.) or using a Coulter counter. […] The assay is useful in calorimetric quantitation of cell viability and proliferation. In contrast, cell differentiation was evaluated using Wright and Non-Specific Esterase (NSE) staining of cells collected on microscope slides by cytospin as previously described (Magrinat, G. et al. (1992) Blood 80: 1880-1884). […]

CCOC(=O)N1CCN(/[N+]([O-])=N/Oc2ccc([N+](=O)[O-])cc2[N+](=O)[O-])CC1 [JS-K, O^2-(2,4-dinitrophenyl) 1-[(4-ethoxycarbonyl)piperazin-1-yl]diazen-1-ium-1,2-diolate] was tested, and the CC50 [1] was 29.5 µM, the “relative sensitivity to cytostatic and cytotoxic effects” value [1] was “most sensitive” and the GI50 ([1]; 58 human cell lines, 48 h) was 1.3 µM. The “mean TGI” value ([1]; 58 human cell lines, 48 h) was 6.6 µM, the “inhibition against prostate cancer cell lines” value ([1]; prostate cancer cell lines) was “moderate inhibition” and the LC50s ([1]; some cell lines within the colon, melanoma and breast cancer subpanels) was “more than 100 μM”. The “morphology by Wright stain” value [2] was “morphologic changes consistent with a monocytic phenotype”, the “percentage of HL-60 cells expressing NSE” value ([2]; from 1) was 40% and the cell growth inhibition ([3]; 1, 2, 3, 4 and 5 μM, 3 days) was “potent inhibitor of prostate cancer growth”. For the same compound, the “IC50 relative to leukemia lines” value ([3]; PPC-1) was “an order of magnitude greater than those for the two leukemia lines”.
